One data set concerns prostaglandin synthesis. The note with it: cited from earlier work.
In data set [1] the test system is Xanthine dehydrogenase (XDH) and oxidase (XO). Description: gastric xanthine dehydrogenase and oxidase activity. The data set is classed as in vivo, rat. The note with it: whole stomach, piroxicam treated. How it is done:
MEASUREMENT OF GASTRIC XANTHINE OXIDASE ACTIVITY. Xanthine dehydrogenase (XDH) and oxidase (XO) activities are measured in whole stomach from piroxicam-treated and vehicle-treated rats, using methods reported by Parks, et. al. […]. 254 (Gastrointest Liver Physiol 17): […]-[…] (1988). The artifactual conversion of XDH to XO is minimized by quickly removing stomachs from rats that were anesthetized with 50 mg/kg sodium pentobarbital and still breathing spontaneously. After gastrectomy, the rats are euthanized by cutting the abdominal aorta. Stomachs are quickly rinsed in an ice cold homogenizing buffer consisting of 50 mM potassium phosphate buffer, pH 7.0, containing 10 mM dithiothreitol (DTT), 1 mM phenylmethylsulfonyl fluoride (PMSF) and 0.1 mM EDTA. The stomach is then immediately immersed in liquid nitrogen and ground to a fine powder under liquid nitrogen using a mortar and pestle. About 0.5 g of frozen powder is added to 5 ml of homogenizing buffer and centrifuged 40,000 g for 30 min. The supernatant is decanted and microfuged for an additional 10 min. […] To increase reaction rates activity was measured at 30 rather than 25° C. […] XO is assayed in the absence in NAD+, while XDH+XO activity is measured in the presence of 500 μM NAD+. […] The extent of XDH conversion (% XO) is calculated from XO activity divided by XDH+XO activity.

Data set [2] relates to microsomal lipid peroxidation. Description: microsomal lipid peroxidation (liver microsomes). The format is biochemical. As to conditions: 200 μM piroxicam, rat liver microsomes.
Method: Studies of Microsomal Lipid Peroxidation. […] Rats are euthanized by CO2 narcosis. The livers are excised rapidly into cold isolation medium containing 0.1M sodium phosphate and 2 mM EDTA, pH 7.4. The tissue is minced and homogenized in 3 ml isolation medium per gram of tissue using a Potter-Elvehjam homogenizer. The homogenate is centrifuged at 17,800 g for 20 min., and the pellet discarded. The supernatant is recentrifuged at 100,000 g for 60 min. The resulting pellet is resuspended in isolation buffer and recentrifuged at 100,000 g for 40 min. The final pellet is resuspended in storage buffer containing 100 mM potassium phosphate, 20% glycerol, 1 mM EDTA, 1 mM DTT and 20 μM butylated hydroxytoluene, pH 7.25. This suspension is frozen under liquid nitrogen and stored at -70° CL until use. Microsomal protein is determined by a modification of the Lowry method of Anderson, M. E. Methods Enzymol 113:548-555 (1985). […] Lipid peroxidation in the 1 ml reaction mixture is measured by mixing with 2 ml TBA reagent and assaying for thiobarbituric acid reactivity by the method of Buege and Aust. Values are expressed as the increase in absorbance at 532 nm ([MUT]) per mg microsomal protein and represent the mean of three replicates.
A further data set relates to gastric ulceration. The note with it: rats and mice; cited from earlier work.
Data set [3] has as its system mitochondrial respiration. Briefly: mitochondrial respiration (liver mitochondria). The format is biochemical, rat. The method, then:
Studies of Mitochondrial Respiration.
Rat liver mitochondria are prepared using the method of Lai and Clark Methods Enzymol 55:51-60 (1979). The livers are excised rapidly into ice cold isolation medium containing 0.25M sucrose, 10 mM tris(hydroxymethyl)aminomethane (Tris), 0.25% bovine serum albumin (fatty acid free), and 0.5 mM potassium EDTA, pH 7.4. The tissue is minced and rinsed three times in cold isolation medium. The minced tissue is placed in a Dounce homogenizer with 20 ml cold isolation medium, gently homogenized, and diluted with an additional 10 ml of isolation medium. The homogenate is centrifuged at 2,000 g for 3 min., and the resulting supernatant recentrifuged at 12,500 g for 8 min. The crude mitochondrial pellet is suspended in 0.12M mannitol-0.03M sucrose medium containing 3% Ficoll, gently layered onto 20 ml of 6% Ficoll (0.25M mannitol-0.06M sucrose), and centrifuged at 11,500 g for 30 min. The resulting mitochondrial pellet is resuspended in the isolation medium and recentrifuged for 10 min. at 12,500 g. The final pellet is brought to a concentration of 10 to 15 mg of mitochondrial protein per ml with isolation medium. Mitochondrial protein is determined by the Biuret reaction described by Gornall, A. G., et al. Biol Chem 177:751-766 (1949), using bovine serum albumin as a standard. Mitochondrial respiration is measured polarographically in a magnetically stirred chamber at 25° C., using a Clark microelectrode (Diamond Electro-tech, Ann Arbor, Mich.). The incubation medium contains the following (in mM): 5K+, 226 mannitol, 75 sucrose, 5 Tris-phosphate, 10 Tris-Cl, and 0.05 EDTA at pH 7.4. State 4 respiratory rates are determined using both NADH-linked (2.5 mM malate+ 2 mM glutamate) and FADH2 -lined (10 mM succinate) substrates, with 5 mM KCl at pH 7.0. State 3 respiration rates are measured after stimulation with 1.5 mM ADP. Respiratory control ratios are determined as the ratio of State 3 to State 4 respiration after incubation with 0, 50, 100 and 200 μM piroxicam.

Data set [4] has as its system mitochondrial respiration. Description: generation of O2- by mitochondrial respiration. The format is biochemical, rat.
Data set [5] deals with gastric biopsies (lipid peroxidation). Description: lipid peroxidation in stomachs (thiobarbituric acid reactivity of gastric punch biopsies). The note with it: 4 h after piroxicam, P<0.05 vs vehicle (0.075±0.004). The format is in vivo, rat. An excerpt: MEASUREMENT OF LIPID PEROXIDATION IN STOMACHS. Lipid peroxidation is studied in piroxicam-and vehicle-treated rat stomachs by measuring thiobarbituric acid (TBA) reactivity of gastric punch biopsies by the method of Buege and Aust Buege, J. A., Aust, S. D. Methods Enzymol 51:302-310 (1978). Four hours after piroxicam or vehicle, stomachs are opened along the radius of greater curvature, washed with ice cold normal saline, and spread along a flat surface with lumens exposed. Five punch biopsies from mucosal through serosal surfaces are taken from each stomach using a 3 mm diameter skin biopsy punch. Biopsies are taken over ulcers in piroxicam treated stomachs and randomly over gastric rugae (where ulcers occur) in vehicle control stomachs. Biopsies from each stomach are combined, homogenized on ice in 1 ml of cold 1.15% KCl, and mixed with 2 ml of TBA reagent (0.375% thiobarbituric acid and 15% trichloroacetic acid in 0.25 HCl, to which 0.01% butylated hydroxytoluene is added just prior to use). After incubation at 100° C. for 15 minutes, the mixture is cooled and centrifuged at 1,500 g for 10 min. The absorbance of the supernatant is measured at 532 nm, and results expressed as […] per stomach.

[6] abbreviates: rat liver mitochondria, 0-200 μM piroxicam.

Molecules are shown by their SMILES.

The source of these data is patent US5036097A, “Phenylbutyl nitrone compositions and methods for prevention of gastric ulceration” (Oklahoma Medical Research Foundation, priority 1990, dated 1991).

With `CN1C(C(=O)Nc2ccccn2)=C(O)c2ccccc2S1(=O)=O` [piroxicam], the “inhibition of prostaglandin synthesis” value in the data set on prostaglandin synthesis is listed as “relative weak reversible inhibitor”. Further, the “XO as % of total XDH+XO activity” value in data set [1] was found to be 45±3%. The “total XDH+XO activity” value in data set [1] (vehicle 31.6±2.45 mU/g) is 30.5±1.6 mU/g. Also, in data set [2], the “NADPH-dependent microsomal lipid peroxidation” value is “no effect”. Moreover, the ulcerogenicity result with gastric ulceration is reported as “highly ulcerogenic”. In data set [3] (FADH2-linked and NADH-linked substrates), the respiratory control result is listed as “inhibition of respiratory control”. Moreover, in data set [3] (setting [6]), the “rate of mitochondrial oxygen uptake in the absence of ADP (State 4)” value was “increases the rate of mitochondrial oxygen uptake” and the “stimulation of respiration by ADP (State 3)” value was “lost in the presence of piroxicam”. The “generation of O2- by mitochondrial respiration” value in data set [4] is listed as “did not increase generation of O2 -”. Besides, the “thiobarbituric acid reactivity, A532” value in data set [5] worked out at 0.104±0.010 A532.
